From patent US20220213102A1, “DIAZEPINONE DERIVATIVES AS CAPSID ASSEMBLY MODULATORS” (Janssen Sciences Ireland Unlimited Company, priority 2019, published 2022)

system: HBV; assay: HBV replication inhibition assay (BDNA assay) in HepG2.2.15 cells; format: cell-based; conditions: Hepatitis B virus, HepG2.2.15, 144 h, encapsidated HBV DNA in supernatant at day 6, BDNA QuantiGene assay
Experimental: HBV replication inhibition by the disclosed compounds were determined in cells infected or transfected with HBV or cells with stably integrated HBV, such as HepG2.2.15 cells (Sells et al. 1987). In this example, HepG2.2.15 cells were maintained in cell culture medium containing 10% fetal bovine serum (FBS), Geneticin, L-glutamine, penicillin and streptomycin. HepG2.2.15 cells were seeded in 96-well plates at a density of 40,000 cells/well and were treated with serially diluted compounds at a final DMSO concentration of 0.5% either alone or in combination by adding drugs in a checker box format. Cells were incubated with compounds for three days, after which medium was removed and fresh medium containing compounds was added to cells and incubated for another three days. At day 6, supernatant was removed and treated with DNase at 37° C. for 60 minutes, followed by enzyme inactivation at 75° C. for 15 minutes. Encapsidated HBV DNA was released from the virions and covalently linked HBV polymerase by incubating in lysis buffer (Affymetrix QS0010) containing 2.5 μg proteinase K at 50° C. for 40 minutes. HBV DNA was denatured by addition of 0.2 M NaOH and detected using a branched DNA (BDNA) QuantiGene assay kit according to manufacturer recommendation (Affymetrix). HBV DNA levels were also quantified using qPCR, based on amplification of encapsidated HBV DNA extraction with QuickExtraction Solution (Epicentre Biotechnologies) and amplification of HBV DNA using HBV specific PCR probes that can hybridize to HBV DNA and a fluorescently labeled probe for quantitation. In addition, cell viability of HepG2.2.15 cells incubated with test compounds alone or in combination was determined by using CellTitre-Glo reagent according to the manufacturer protocol (Promega). The mean background signal from wells containing only culture medium was subtracted from all other samples, and percent inhibition at each compound concentration was calculated by normalizing to signals from HepG2.2.15 cells treated with 0.5% DMSO using equation E1.
% inhibition=(DMSOave−Xi)/DMSOave×100% E1:
where DMSOave is the mean signal calculated from the wells that were treated with DMSO control (0% inhibition control) and Xi is the signal measured from the individual wells. EC50 values, effective concentrations that achieved 50% inhibitory effect, were determined by non-linear fitting using Graphpad Prism software (San Diego, Calif.) and equation E2.
Y=Ymin+(Ymax−Ymin)/(1+10(Log EC50−X)×HillSlope) E2:
where Y represents percent inhibition values and X represents the logarithm of compound concentrations.
Selected disclosed compounds were assayed in the HBV replication assay (BDNA assay), as described above, and a representative group of these active compounds is shown in Table 3.

| SMILES | EC50 [nM] |
| --- | --- |
| CN1CC(c2nc[nH]n2)Cn2nc3c(c2C1=O)CN(C(=O)Nc1ccc(F)c(C#N)c1)CC3 (stereo not shown) [Example 1, N-(3-Cyano-4-fluorophenyl)-10-methyl-11-oxo-8-(1H-1,2,4-triazol-3-yl)-3,4,8,9,10,11-hexahydro-1H-pyrido[4′,3′:3,4]pyrazolo[1,5-a][1,4]diazepine-2(7H)-carboxamide] | > 4000 |
| CN1CC(c2ncno2)Cn2nc3c(c2C1=O)CN(C(=O)Nc1ccc(F)c(C#N)c1)CC3 (stereo not shown) [Example 2, N-(3-Cyano-4-fluorophenyl)-10-methyl-8-(1,2,4-oxadiazol-5-yl)-11-oxo-3,4,8,9,10,11-hexahydro-1H-pyrido[4′,3′:3,4]pyrazolo[1,5-a][1,4]diazepine-2(7H)-carboxamide] | > 4000 |
| CN1CC(c2nnn[nH]2)Cn2nc3c(c2C1=O)CN(C(=O)Nc1ccc(F)c(C#N)c1)CC3 (stereo not shown) [Example 3, N-(3-Cyano-4-fluorophenyl)-10-methyl-11-oxo-8-(1H-tetrazol-5-yl)-3,4,8,9,10,11-hexahydro-1H-pyrido[4′,3′:3,4]pyrazolo[1,5-a][1,4]diazepine-2(7H)-carboxamide] | > 4000 |
| CN1CC(c2cc[nH]n2)Cn2nc3c(c2C1=O)CN(C(=O)Nc1ccc(F)c(Cl)c1)CC3 (stereo not shown) [Example 4, N-(3-Chloro-4-fluorophenyl)-10-methyl-11-oxo-8-(1H-pyrazol-3-yl)-3,4,8,9,10,11-hexahydro-1H-pyrido[4′,3′:3,4]pyrazolo[1,5-a][1,4]diazepine-2(7H)-carboxamide] | 93 |
| CN1CC(c2ccnn2C)Cn2nc3c(c2C1=O)CN(C(=O)Nc1ccc(F)c(C#N)c1)CC3 (stereo not shown) [Example 6, N-(3-Cyano-4-fluorophenyl)-10-methyl-8-(1-methyl-1H-pyrazol-5-yl)-11-oxo-3,4,8,9,10,11-hexahydro-1H-pyrido[4′,3′:3,4]pyrazolo[1,5-a][1,4]diazepine-2(7H)-carboxamide] | 83 |
| CN1CC(O)(c2ccccc2)Cn2nc3c(c2C1=O)CN(C(=O)Nc1ccc(F)c(C#N)c1)CC3 (stereo not shown) [Example 15, N-(3-Cyano-4-fluoro-phenyl)-11-hydroxy-13-methyl-14-oxo-11-phenyl-4,8,9,13-tetrazatricyclo[7.5.0.0^2,7]tetradeca-1,7-diene-4-carboxamide] | 140 |
| CN1CC(F)(c2ccccc2)Cn2nc3c(c2C1=O)CN(C(=O)Nc1ccc(F)c(C#N)c1)CC3 (stereo not shown) [Example 16, N-(3-Cyano-4-fluorophenyl)-8-fluoro-10-methyl-11-oxo-8-phenyl-3,4,8,9,10,11-hexahydro-1H-pyrido[4′,3′:3,4]pyrazolo[1,5-a][1,4]diazepine-2(7H)-carboxamide] | 176 |
